We go through 1 molecule from ChEMBL document CHEMBL4308841, “Synthesis, in vitro antiproliferative activity, and kinase inhibitory effects of pyrazole-containing diarylureas and diarylamides” (Eur J Med Chem, 2018).

The test system of this experiment is HT-29. In words: Growth inhibition of human HT-29 cells assessed as cell growth at 10 uM incubated for 48 hrs by sulforhodamine B assay relative to control. The class given is functional. The following applies: HT-29, 48 h, read-out: Activity. A general note: Sulforhodamine B stains cellular protein and so reports cell mass.

As for `COc1cc(Cl)cc(-c2nn(-c3cccc(NC(=O)c4ccc(Cl)c(Cl)c4)c3)cc2-c2ccncc2)c1`, the growth at 10 µM came to 56.4%.
